For 33 compounds, IC50 results are on record in patent publication US10501479B2, “Benzenesulfonyl-asymmetric ureas and medical uses thereof” (HELSINN HEALTHCARE SA, priority 2016, dated 2019).

The target of the test is T1, GHSR-1a (HEK293/GHSR1a cell line) (Homo sapiens, UniProt Q92847).
T1 construct: expressed in transfected cells; host or cells: HEK293/GHSR1a cell line
Put plainly: Ghrelin antagonist potency (IC50) with calcium FLIPR assay, ghrelin 10 nM. It is filed as cell-based. Here is the method: Evaluation of Ghrelin Agonist (EC50) and Antagonist Potency (IC50) with Calcium FLIPR Assay:
The intracellular calcium assay was carried out in a 384-well format FLIPR™ (Molecular Device) HEK293/GHSR1a cell line. Cells were seeded 24 hr prior to the experiments at an optimal density per well. Preincubation with selected calcium dye lasted for 30-60 min at room temperature or 37° C. Test compounds, dissolved in DMSO, were added at the appropriate time and incubated for 15 min followed by the addition of ghrelin with FlexStation or FLIPR. Relative fluorescence was monitored by the FLIPR™ Molecular Device. EC50 and IC50 values were estimated from dose-response data using GraphPad Prism software. To check for GHSR-1a agonism, the compound was added at t=20 sec. and the calcium response was followed for 2 minutes. To check for GHSR-1a antagonism, the compound and Ghrelin (10 nM) were added to the cells at t=20 sec. and the calcium response was measured for 2 minutes. The potency of the antagonist was calculated by its ability to reduce the ghrelin response. Dose-response curves were made for relevant antagonists.

Setting [1] is: ghrelin antagonist potency, read-out: IC50 (Activity).
Where [2] appears, read: HEK293/GHSR1a, ghrelin 10 nM, read-out: Activity IC50 (ghrelin antagonist potency).

Broadly, the IC50 is the midpoint of a concentration-inhibition curve.

Where two headings read alike, the source gives them in different places.

T1 sequence (Q92847 whole entry): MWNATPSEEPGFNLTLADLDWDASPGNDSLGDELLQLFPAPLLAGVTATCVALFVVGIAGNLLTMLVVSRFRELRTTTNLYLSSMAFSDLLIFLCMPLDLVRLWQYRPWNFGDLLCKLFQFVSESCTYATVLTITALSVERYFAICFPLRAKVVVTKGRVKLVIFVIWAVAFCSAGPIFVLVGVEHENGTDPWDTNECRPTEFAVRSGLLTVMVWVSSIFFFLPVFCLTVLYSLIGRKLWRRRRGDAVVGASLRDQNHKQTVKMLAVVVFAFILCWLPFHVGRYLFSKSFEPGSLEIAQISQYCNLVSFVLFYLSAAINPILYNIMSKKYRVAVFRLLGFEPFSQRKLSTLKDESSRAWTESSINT

As to `C[C@H](NC(=O)Nc1ccc(S(=O)(=O)Nc2ccc(-c3ncc[nH]3)cc2)cc1)c1cccc(Cl)c1Cl` [H1110, (S)-N-(4-(1H-imidazol-2-yl)phenyl)-4-(3-(1-(2,3-dichlorophenyl)ethyl)ureido) benzenesulfonamide], the IC50 under setting [1] was found to be 0.95 µM.
On the same count and under the same terms, in the case of `COc1ccc([C@H](C)NC(=O)Nc2ccc(S(=O)(=O)Nc3ccc(C)cc3)cc2)c(Cl)c1Cl` [H0953, (S)-4-(3-(1-(2,3-dichloro-4-methoxyphenyl)ethyl)ureido)-N-(p-tolyl)benzenesulfonamide] it was above 30 µM.
With `CCc1ccc(Cl)c(C(=O)NC(=O)Nc2ccc(S(=O)(=O)Nc3ccc(CC(C)(C)N)cc3)cc2)c1` [H1254, N-((4-(N-(4-(2-amino-2-methylpropyl)phenyl)sulfamoyl)phenyl)carbamoyl)-2-chloro-5-ethylbenzamide], under setting [2], the IC50 came out at 0.0172 µM.
As for `CCc1ccc(Cl)c(C(=O)NC(=O)Nc2ccc(S(=O)(=O)Cc3ccc4c(c3)CNC4)cc2)c1` [H1248, 2-chloro-5-ethyl-N-((4-((isoindolin-5-ylmethyl)sulfonyl)phenyl)carbamoyl)benzamide], under setting [1], the IC50 was 0.283 µM.
Same read-out and setting: in the case of `CCc1ccc(Cl)c(C(=O)NC(=O)Nc2ccc(S(=O)(=O)Cc3ccc(CC(C)(C)N)cc3)cc2)c1` [H1253, N-((4-((4-(2-amino-2-methylpropyl)benzyl)sulfonyl)phenyl)carbamoyl)-2-chloro-5-ethylbenzamide] it was 0.0868 µM; in that of `C[C@H](NC(=O)Nc1ccc(S(=O)(=O)Cc2ccc(C(N)=O)cc2)cc1)c1cccc(Cl)c1Cl` [H1073, (S)-4-(((4-(3-(1-(2,3-dichlorophenyl)ethyl)ureido)phenyl)sulfonyl)methyl)benzamide], above 30 µM; in that of `CCOc1ccc(Cl)c(C(=O)NC(=O)Nc2ccc(S(=O)(=O)Cc3ccc4c(c3)CNC4)cc2)c1` [H1251, 2-chloro-5-ethoxy-N-((4-((isoindolin-5-ylmethyl)sulfonyl)phenyl)carbamoyl)benzamide], 0.0896 µM.
On to `C[C@H](NC(=O)Nc1ccc(S(=O)(=O)Nc2ccc(N)nc2)cc1)c1cccc(Cl)c1Cl` [H1126, (S)-N-(6-aminopyridin-3-yl)-4-(3-(1-(2,3-dichlorophenyl)ethyl)ureido) benzenesulfonamide], for which the IC50 under setting [1] was determined as 0.183 µM.
On the same count and under the same terms, in the case of `C[C@H](NC(=O)Nc1ccc(S(=O)(=O)NC2CCN(C)CC2)cc1)c1ccccc1` [H1239, (S)-N-(1-methylpiperidin-4-yl)-4-(3-(1-phenylethyl)ureido) benzenesulfonamide] it was above 30 µM; in that of `COC(=O)c1ccc(CS(=O)(=O)c2ccc(NC(=O)N[C@@H](C)c3cccc(Cl)c3Cl)cc2)cc1` [H1058, methyl (S)-4-(((4-(3-(1-(2,3-dichlorophenyl)ethyl)ureido)phenyl)sulfonyl)methyl)benzoate], 20 µM.
Same read-out and setting: to `C[C@H](NC(=O)Nc1ccc(S(=O)(=O)Cc2ccc(C#N)cc2)cc1)c1cccc(Cl)c1Cl` [H1101, (S)-1-(4-((4-cyanobenzyl)sulfonyl)phenyl)-3-(1-(2,3-dichlorophenyl)ethyl)urea] belongs at least 30 µM; to `CC(NC(=O)N(C)c1ccc(S(=O)(=O)Cc2ccc3c(c2)CNC3)cc1)c1ccccc1` (stereo not drawn) [H1213, 1-(4-((isoindolin-5-ylmethyl)sulfonyl)phenyl)-1-methyl-3-(1-phenylethyl)urea], 4.35 µM; to `O=C(NCc1ccccc1)Nc1ccc(S(=O)(=O)Cc2ccc(CO)cc2)cc1` [H1131, 1-benzyl-3-(4-((4-(hydroxymethyl)benzyl)sulfonyl)phenyl)urea], at least 30 µM.
For `COc1ccc(C(C)NC(=O)Nc2ccc3c(c2)CC(c2ccc4c(c2)CNC4)S3(=O)=O)cc1` (stereo not drawn) [H1297, 1-(2-(isoindolin-5-yl)-1,1-dioxido-2,3-dihydrobenzo[b]thiophen-5-yl)-3-(1-(4-methoxyphenyl)ethyl)urea], the IC50 under setting [2] is 0.0231 µM.
Regarding `C[C@H](NC(=O)Nc1ccc(S(=O)(=O)Cc2cccc(O)c2)cc1)c1cccc(Cl)c1Cl` [H1084, (S)-1-(1-(2,3-dichlorophenyl)ethyl)-3-(4-((3-hydroxybenzyl)sulfonyl)phenyl)urea], the 50% inhibitory concentration (IC50) under setting [1] worked out at 3.5 µM.
With `C[C@H](NC(=O)Nc1ccc(S(=O)(=O)N2CCN(C)CC2)cc1)c1ccccc1` [H1225, (S)-1-(4-((4-methylpiperazin-1-yl)sulfonyl)phenyl)-3-(1-phenylethyl)urea], the IC50 under setting [1] was 5.9 µM.
`CCc1ccc(Cl)c(C(=O)NC(=O)Nc2ccc(S(=O)(=O)Nc3ccc4c(c3)CNCC4)cc2)c1` [H1263, 2-chloro-5-ethyl-N-((4-(N-(1,2,3,4-tetrahydroisoquinolin-7-yl)sulfamoyl)phenyl)carbamoyl) benzamide]: the IC50 under setting [2] amounted to 0.246 µM.
Consider `CC(NC(=O)Nc1ccc(S(=O)(=O)C(C)(C)c2ccc3c(c2)CN(Cc2ccccc2)C3)cc1)c1ccccc1` (stereo not drawn) [H1231, 1-(4-((2-(2-benzylisoindolin-5-yl)propan-2-yl)sulfonyl)phenyl)-3-(1-phenylethyl)urea], for which the IC50 under setting [1] is above 30 µM.
On the same count and under the same terms, to `COc1ccc(C(C)(C)NC(=O)Nc2ccc(S(=O)(=O)Nc3ccc(CC(C)(C)N)cc3)cc2)c(Cl)c1Cl` [H0975, N-(4-(2-amino-2-methylpropyl)phenyl)-4-(3-(2-(2,3-dichloro-4-methoxyphenyl)propan-2-yl)ureido)benzenesulfonamide] belongs 0.0095 µM; to `C[C@H](NC(=O)Nc1ccc(S(=O)(=O)Nc2ccccc2)cc1)c1cccc(Cl)c1Cl` [H0965, (S)-4-(3-(1-(2,3-dichlorophenyl)ethyl)ureido)-N-phenylbenzenesulfonamide], above 30 µM; to `COc1ccc([C@H](C)NC(=O)Nc2ccc(S(=O)(=O)Cc3ccc4c(c3)CCN(S(C)(=O)=O)C4)cc2)c(Cl)c1Cl` [H1026, (S)-1-(1-(2,3-dichloro-4-methoxyphenyl)ethyl)-3-(4-(((2-(methylsulfonyl)-1,2,3,4-tetrahydroisoquinolin-6-yl)methyl)sulfonyl)phenyl)urea], 14.9 µM.
As to `C[C@H](NC(=O)Nc1ccc(S(=O)(=O)CCN2CCOCC2)cc1)c1cccc(Cl)c1Cl` [H1096, (S)-1-(1-(2,3-dichlorophenyl)ethyl)-3-(4-((2-morpholinoethyl)sulfonyl)phenyl)urea], under setting [1], the IC50 was at least 30 µM.
Same read-out and setting: to `COC(=O)Cc1ccc(NS(=O)(=O)c2ccc(NC(=O)N[C@@H](C)c3cccc(Cl)c3Cl)cc2)cc1` [H1075, methyl (S)-2-(4-((4-(3-(1-(2,3-dichlorophenyl)ethyl)ureido)phenyl)sulfonamido)phenyl)acetate] belongs 3.02 µM.
Same read-out and setting: in the case of `C[C@H](NC(=O)Nc1ccc(S(=O)(=O)CC2CCN(C)CC2)cc1)c1ccccc1` [H1238, (S)-1-(4-(((1-methylpiperidin-4-yl)methyl)sulfonyl)phenyl)-3-(1-phenylethyl)urea] it was above 30 µM.
Same read-out and setting: in the case of `O=C(NCc1cccc(Cl)c1Cl)Nc1ccc(S(=O)(=O)Cc2ccc3c(c2)NCC3)cc1` [H1046, 1-(2,3-dichlorobenzyl)-3-(4-((indolin-6-ylmethyl)sulfonyl)phenyl)urea] it was 1.99 µM; in that of `O=C(NCc1cscn1)Nc1ccc(S(=O)(=O)Cc2ccc3c(c2)CNC3)cc1` [H1216, 1-(4-((isoindolin-5-ylmethyl)sulfonyl)phenyl)-3-(thiazol-4-ylmethyl)urea], 8.45 µM; in that of `C[C@H](NC(=O)Nc1ccc(S(=O)(=O)Cc2ccc(CO)cc2)cc1)c1ccccc1` [H1222, (S)-1-(4-((4-(hydroxymethyl)benzyl)sulfonyl)phenyl)-3-(1-phenylethyl)urea], 3.16 µM.
In the case of `COc1ccc([C@H](C)NC(=O)Nc2ccc(S(=O)(=O)Nc3ccccc3)cc2)c(Cl)c1Cl` [H0950, (S)-4-(3-(1-(2,3-dichloro-4-methoxyphenyl)ethyl)ureido)-N-phenylbenzenesulfonamide], the IC50 under setting [1] is 20.8 µM.
Still for that read-out and setting: to `C[C@H](NC(=O)Nc1ccc(S(=O)(=O)Nc2ccc3c(c2)CCCN3)cc1)c1cccc(Cl)c1Cl` [H1003, (S)-4-(3-(1-(2,3-dichlorophenyl)ethyl)ureido)-N-(1,2,3,4-tetrahydroquinolin-6-yl)benzenesulfonamide] belongs 2.02 µM.
Take `C[C@H](NC(=O)Nc1ccc(S(=O)(=O)C(C)(C)c2ccc3c(c2)CCNC3)cc1)c1cccc(Cl)c1Cl` [H1081, (S)-1-(1-(2,3-dichlorophenyl)ethyl)-3-(4-((2-(1,2,3,4-tetrahydroisoquinolin-6-yl)propan-2-yl)sulfonyl)phenyl)urea]: the IC50 under setting [1] amounted to 1.24 µM.
On to `COc1ccc(C(C)NC(=O)Nc2ccc(S(=O)(=O)Cc3ccc(CO)cc3)cc2)c2ccccc12` (stereo not drawn) [H1140, 1-(4-((4-(hydroxymethyl)benzyl)sulfonyl)phenyl)-3-(1-(4-methoxynaphthalen-1-yl)ethyl)urea], for which the IC50 under setting [1] was at least 30 µM.
On the same count and under the same terms, in the case of `COc1ccc([C@H](C)NC(=O)Nc2ccc(S(=O)(=O)Nc3ccc4c(c3)CCCN4)cc2)c(Cl)c1Cl` [H1008, (S)-4-(3-(1-(2,3-dichloro-4-methoxyphenyl)ethyl)ureido)-N-(1,2,3,4-tetrahydroquinolin-6-yl)benzenesulfonamide] it was 6.38 µM; in that of `COc1ccc([C@H](C)NC(=O)Nc2ccc(S(=O)(=O)Nc3ccc4[nH]ccc4c3)cc2)c(Cl)c1Cl` [H0990, (S)-4-(3-(1-(2,3-dichloro-4-methoxyphenyl)ethyl)ureido)-N-(1H-indol-5-yl) benzenesulfonamide], 0.823 µM.
